Laboratory results taken from patent publication US6756382B2, “Amide substituted imidazoquinolines” (3M Innovative Properties Company, priority 1999, dated 2004).

Assays:
interferon (α) = experiment: Cytokine induction in human cells: interferon secreted by PBMCs, ELISA; assay type: cell-based; settings: PBMC, incubated 18 to 24 hours, interferon determined by ELISA, read-out: Lowest Effective Concentration (μM) Interferon
Source text: (§1) An in vitro human blood cell system was used to assess cytokine induction by compounds of the invention. Activity is based on the measurement of interferon and tumor necrosis factor (α) (IFN and TNF, respectively) secreted into culture media as described by Testerman et. al. In “Cytokine Induction by the Immunomodulators Imiquimod and S-27609”, Journal of Leukocyte Biology, 58, 365-372 (September, 1995).
(§2) Whole blood is collected by venipuncture into EDTA vacutainer tubes from healthy human donors. Peripheral blood mononuclear cells (PBMCs) are separated from whole blood by density gradient centrifugation using Histopaque®-1077 (Sigma Chemicals, St. Louis, Mo.). The PBMCs are suspended at 3-4×10^6 cells/mL in RPMI 1640 medium containing 10% fetal bovine serum, 2 mM L-glutamine and 1% penicillin/streptomycin solution (RPMI complete). The PBMC suspension is added to 48 well flat bottom sterile tissue culture plates (Costar, Cambridge, Mass. or Becton Dickinson Labware, Lincoln Park, N.J.) containing an equal volume of RPMI complete media containing test compound.
(§3) The compounds are solubilized in dimethyl sulfoxide (DMSO). The DMSO concentration should not exceed a final concentration of 1% for addition to the culture wells.
(§4) The solution of test compound is added at 60 μM to the first well containing RPMI complete and serial (three fold or ten fold) dilutions are made. The PBMC suspension is then added to the wells in an equal volume, bringing the test compound concentrations to the desired range. The final concentration of PBMC suspension is 1.5-2×10^6 cells/mL. The plates are covered with sterile plastic lids, mixed gently and then incubated for 18 to 24 hours at 37° C. in a 5% carbon dioxide atmosphere.
(§5) Following incubation the plates are centrifuged for 5-10 minutes at 1000 rpm (˜200×g) at 4° C. The cell culture supernatant is removed with a sterile polypropylene pipet and transferred to sterile polypropylene tubes. Samples are maintained at −30 to −70° C. until analysis. The samples are analyzed for interferon (α) by either ELISA or bioassay and for tumor necrosis factor (α) by ELISA.
Interferon (α) concentration is determined by ELISA using a Human Multi-Species kit from PBL Biomedical Laboratories, New Brunswick, N.J.
(§6) The table below lists the lowest concentration found to induce interferon and the lowest concentration found to induce tumor necrosis factor for each compound. […] Unless otherwise indicated, the interferon biosynthesis was determined by ELISA.

[1] = tested on: tumor necrosis factor (α); experiment: Cytokine induction in human cells: tumor necrosis factor (α) secreted by PBMCs, ELISA; assay type: cell-based; settings: PBMC, incubated 18 to 24 hours, TNF determined by ELISA, read-out: Lowest Effective Concentration (μM) Tumor Necrosis Factor
Source text: as §1, §2, §3, §4, §5
Tumor necrosis factor (α) (TNF)concentration is determined using ELISA kits available from Genzyme, Cambridge, Mass.; R&D Systems, Minneapolis, Minn.; or Pharmingen, San Diego, Calif.
as §6

Row | SMILES | minimal effective concentration (interferon (α)) [µM] | melting point | minimal effective concentration [1] [µM]
1 | Nc1nc2ccccc2c2c1ncn2CCNC(=O)CCc1ccccc1 [Example 17, N^1-[2-(4-Amino-1H-imidazo[4,5-c]quinolin-1-yl)ethyl]-3-phenylpropanamide] | 3.33 | 254 to 256 °C | 10
2 | Nc1nc2ccccc2c2c1ncn2CCCCNC(=O)c1ccc(Cn2c(N3CCCC3)nc3ccccc32)cc1 [Example 8, N^1-[4-(4-Amino-1H-imidazo[4,5-c]quinolin-1-yl)butyl]-4-[(2-tetrahydro-1H -1-pyrrolyl-1H-benzo[d]imidazol-1-yl)methyl]benzamide] | 0.04 | 150 to 153 °C | > 30
3 | Nc1nc2ccccc2c2c1ncn2CCCCNC(=O)c1ccc(CCl)cc1 [Example 7, N^1-[4-(4-Amino-1H-imidazo[4,5-c]quinolin-1-yl)butyl]-4-(chloromethyl)benzamide] | 1.11 | 240 to 300 °C (dec.) | > 30
4 | CCCc1nc2c(N)nc3ccccc3c2n1CCCCNC(=O)c1ccccc1 [Example 3, N^1-[4-(4-Amino-2-propyl-1H-imidazo[4,5-c]quinolin-1-yl)butyl]benzamide] | 0.37 | 173 to 174 °C | 1.11
5 | COCCc1nc2c(N)nc3ccccc3c2n1CC(C)(C)CNC(=O)c1ccccc1 [Example 190, N-{3-[4-amino-2-(2-methoxyethyl)-1H-imidazo[4,5-c]quinolin-1-yl]-2,2-dimethylpropyl}benzamide] | 0.01 | 103 to 125 °C | 0.01
6 | Nc1nc2ccccc2c2c1ncn2CCCCNC(=O)CCCCOc1ccc2[nH]c(=O)[nH]c2c1 [Example 19, N-[4-Amino-1H-imidazo[4,5-c]quinolin-1-yl]butyl-5-[(2-oxo-2,3-dihydro-1H-benzo[d]imidazol-5-yl)oxy]pentamide] | 10 | 150 to 157 °C | > 30
7 | CC(Oc1ccccc1)C(=O)NCCCCn1cnc2c(N)nc3ccccc3c21 (stereo not drawn) [Example 41, N^1-[4-(4-Amino-1H-imidazo[4,5-c]quinolin-1-yl)butyl]-2-phenoxypropanamide] | 1.11 | 85 to 87.5 °C | > 30
8 | Nc1nc2ccccc2c2c1ncn2CCNC(=O)CCCCC1SCC2NC(=O)NC21 (stereo not drawn) [Example 27, N^1-[2-(4-Amino-1H-imidazo[4,5-c]quinolin-1-yl)ethyl]-5-(2-oxoperhydrothieno[3,4-d]imidazol-4-yl)pentanamide] | > 30 | 169 °C | > 30
9 | Nc1nc2ccccc2c2c1ncn2CCCCNC(=O)CCc1ccccc1 [Example 16, N^1-[4-(4-Amino-1H-imidazo[4,5-c]quinolin-1-yl)butyl]-3-phenylpropanamide] | 1.11 | 148 to 150 °C | 30
10 | CC(C)Cc1ccc(C(C)C(=O)NCCCCn2cnc3c(N)nc4ccccc4c32)cc1 (stereo not drawn) [Example 46, N^1-[4-(4-Amino-1 H-imidazo[4,5-c]quinolin-1-yl)butyl]-2-(4-isobutylphenyl)propanamide] | > 30 | 172 to 173 °C | 10
11 | Nc1nc2ccccc2c2c1ncn2CCCCNC(=O)c1ccc(-c2ccccc2)cc1 [Example 34, N^1-[4-(4-Amino-1H-imidazo[4,5-c]quinolin-1-yl)butyl]-4-phenylbenzamide] | > 30 | 215.4 °C (dec.) | 3.33
12 | Nc1nc2ccccc2c2c1ncn2CCCCNC(=O)c1cccc(Oc2ccccc2)c1 [Example 39, N^1-[4-(4-Amino-1H-imidazo[4,5-c]quinolin-1-yl)butyl]-3-phenoxybenzamide] | 3.33 | 105 to 107 °C | > 30
13 | COCCc1nc2c(N)nc3ccccc3c2n1CCCNC(=O)c1ccccc1 [Example 196, N-{3-[4-amino-2-(2-methoxyethyl)-1H-imidazo[4,5-c]quinolin-1-yl]propyl}benzamide] | 0.01 | 183 to 186 °C | 0.37
14 | Nc1nc2ccccc2c2c1ncn2CCCCCCNC(=O)c1ccccc1 [Example 23, N^1-[6-(4-Amino-1H-imidazo[4,5-c]quinolin-1-yl)hexyl]benzamide] | 1.11 | 146 to 155 °C | > 30
15 | Nc1nc2ccccc2c2c1ncn2CCCCNC(=O)c1ccc2ncccc2c1 [Example 21, N^6-[4-(4-Amino-1H-imidazo[4,5-c]quinolin-1-yl)butyl]-6-quinolinecarboxamide] | 0.12 | 122 to 127 °C | 1.11
16 | Cc1nc2c(N)nc3ccccc3c2n1CCCCCNC(=O)c1ccccc1 [Example 9, N^1-[5-(4-Amino-2-methyl-1H-imidazo[4,5-c]quinolin-1-yl)pentyl]benzamide] | 0.37 | 110 to 120 °C | 3.33
17 | CCCCc1nc2c(N)nc3ccccc3c2n1CCNC(=O)CCCCC1SCC2NC(=O)NC21 (stereo not drawn) [Example 28, N^1-[2-(4-Amino-2-butyl-1H-imidazo[4,5-c]quinolin-1-yl)ethyl]-5-(2-oxoperhydrothieno[3,4-d]imidazol-4-yl)pentanamide] | 0.12 | 124 to 126 °C | > 30
18 | CCCCc1nc2c(N)nc3ccccc3c2n1CCCNC(=O)c1ccccc1 [Example 189, N-[3-(4-amino-2-butyl-1H-imidazo[4,5-c]quinolin-1-yl)propyl]benzamide] | 0.04 | 189.4 to 190 °C | 0.12
19 | Nc1nc2ccccc2c2c1ncn2CCCCNC(=O)[C@H]1C[C@@H]1c1ccccc1 (relative stereo) [Example 37, N^1-[4-(4-Amino-1H-imidazo[4,5-c]quinolin-1-yl)butyl]-(trans)-2-phenylcyclopropane-1-carboxamide] | 0.37 | 77 °C | > 30
20 | COCCc1nc2c(N)nc3ccccc3c2n1CCCCNC(=O)c1cnc2ccccc2n1 [Example 183, N-{4-[4-amino-2-(2-methoxyethyl)-1H-imidazo [4,5-c]quinolin-1-yl]butyl}quinoxaline-2-carboxamide] | 0.01 | 85 to 87 °C | 0.04
21 | Nc1nc2ccccc2c2c1ncn2CCCCNC(=O)c1cccc(C(=O)c2ccccc2)c1 [Example 15, N^1-[4-(4-Amino-1H-imidazo[4,5-c]quinolin-1-yl)butyl]-3-benzoylbenzamide] | 3.33 | 103 to 105 °C | > 30
22 | Nc1nc2ccccc2c2c1ncn2CCCCNC(=O)c1ccc2ccccc2c1 [Example 43, N^2-[4-(4-Amino-1H-imidazo[4,5-c]quinolin-1-yl)butyl]-2-naphthamide] | 0.12 | 257 °C (dec.) | > 30
23 | CCCCc1nc2c(N)nc3ccccc3c2n1CCNC(=O)CCCCC1SCC2NC(=N)NC21 (stereo not drawn) [Example 26, N^1-[2-(4-Amino-2-butyl-1H-imidazo[4,5-c]quinolin-1-yl)ethyl]-5-(2-iminoperhydrothieno[3,4-d]imidazol-4-yl)pentanamide] | 0.37 | 95 to 96 °C | 10
24 | Nc1nc2ccccc2c2c1ncn2CCCCNC(=O)c1ccc(N2CCOCC2)nc1 [Example 12, N^3-[4-(4-Amino-1H-imidazo[4,5-c]quinolin-1-yl)butyl]-6-morpholinonicotinamide] | 3.33 | 160 to 170 °C (dec.) | > 30
25 | CCCCC(CC)C(=O)NCCCCn1cnc2c(N)nc3ccccc3c21 (stereo not drawn) [Example 36, N^1-[4-(4-Amino-1H-imidazo[4,5-c]quinolin-1-yl)butyl]-2-ethylhexanamide] | 1.11 | 163 to 164 °C | 10
